Like-named read-outs stand apart in the source and are kept apart here.
Columns and labels:
[1] = tested on: gastric acid secretion induced by pentagastrin; assay: Antisecretive activity in anaesthetised rats (pentagastrin-stimulated gastric acid secretion); type: in vivo; conditions: pentagastrin 30 mcg/Kg/h; for ED50: Rattus norvegicus, iv, anaesthetised male rats, I.V. bolus, IN with bound, read-out: Antagonistic activity (ID50) towards gastric acid secretion induced by pentagastrin; for Antigastrin activity (in words): anaesthetised rats
Experimental: Antisecretive activity in anaesthetised rats
Antisecretive activity in rats was determined with the use of male animals each weighing about 200 g, anaesthetised with urethane. Gastric secretion was stimulated with pentagastrin. The method of K. S. Lai (Gut 5, (1964), 327-341) was used, slightly modified.
After tracheotomy, cannulae were inserted in the oesophagus and the duodenum. A tepid solution. (37° C.) of 0.25 mM NaOH was perfused and passed through the stomach by means of a peristaltic pump at a constant flow rate of 1 ml/minute. After stabilisation for 20 minutes, the stimulating agent, dissolved in a physiological solution, was perfused for 120 minutes at a dose of 30 mcg/Kg/h in a volume of 0.95 ml/hour. After perfusion for 60 minutes (the basal stimulation), the product under test was administered as an intravenous bolus (I.V.) and the perfusion of the stimulant continued for a further 60 minutes. Acid secretion was recorded continuously as a function of time.
The activity of the product was evaluated as the percentage reduction in the secreted acidity after the administration of the product compared with the base acidity measured during the first 60 minutes of collection during which only the pentagastrin was present.
Different doses of the antagonist compounds tested were administered so that an ID50, that is, the dose (in mg/Kg I.V.) capable of inhibiting the effect of pentagastrin by 50%, could be calculated.
The results thus obtained are illustrated in the following table (Table 1) in which the activities of the compounds are expressed as the ID50s under the stimulus of 30 mcg/Kg/h of pentagastrin.

[2] = molecular target: T1, gastrin receptor sites on the cerebral cortex membranes of mice (Mus musculus, UniProt P56481); assay: Inhibition of the binding of pentagastrin to mouse cortical membranes
T1 construct: Mouse cortical tissue; from tissue; host or cells: mouse cerebral cortex membranes
T1 sequence (P56481 1-453): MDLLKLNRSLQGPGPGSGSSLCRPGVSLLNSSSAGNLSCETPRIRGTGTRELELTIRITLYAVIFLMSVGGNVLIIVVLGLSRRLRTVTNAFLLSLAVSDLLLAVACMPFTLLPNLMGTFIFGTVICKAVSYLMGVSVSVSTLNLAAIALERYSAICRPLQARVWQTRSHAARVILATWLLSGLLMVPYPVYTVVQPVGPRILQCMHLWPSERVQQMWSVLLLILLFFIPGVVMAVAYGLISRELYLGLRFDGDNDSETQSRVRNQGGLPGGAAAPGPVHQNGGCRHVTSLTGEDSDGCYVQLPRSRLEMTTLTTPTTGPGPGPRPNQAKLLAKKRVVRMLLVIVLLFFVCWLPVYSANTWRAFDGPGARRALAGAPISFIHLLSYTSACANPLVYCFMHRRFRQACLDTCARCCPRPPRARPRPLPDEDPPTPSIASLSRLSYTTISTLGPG
Excerpt: Tests on binding to cerebral cortex membranes of mice
The capacities of some of the compounds of the invention to inhibit the binding of pentagastrin to the gastrin receptor sites on the cerebral cortex membranes of mice was to be evaluated. Pentagastrin tritiate[beta-alanyl-3-3H(N)] was used as the ligand.
Mouse cortical tissue Was homogenised cold in 20 volumes of tris buffer (pH 7.7). After washing and centrifuging, the final pellet was resuspended in 20 volumes of binding buffer containing, inter alia, TRIS, BSA and Bacitracin. 0.4 ml of the membrane thus obtained were then incubated with a radioactive tracer and the compounds under test for 40 minutes at 37° C.
After the supernatant liquid had been removed by centrifuging, the radioactivity associated with the pellet was determined with a liquid scintillator (a beta-counter). The specific binding was the difference between the binding in the absence and in the presence of 10^-5M pentagastrin.

[3] = tested on: guinea-pig gall bladder contracted with CCK-8; assay: Anticholecystokinin (anti-CCK) activity on guinea-pig gall bladders stimulated by CCK-8 in vitro; conditions: for Anti-CCK activity IC50: CCK-8 concentration 10 ng/ml, Krebs, 32° C.; for Antagonism of contracturant activity of CCK-8 relative to lorglumide (in words): vs lorglumide
Experimental: Anticholecystokinin (anti-cc, K) activity
In order to confirm the hypothesis that the molecular conformations of the compounds of the invention are suitable to provide them with antagonistic activity towards CCK as well as towards gastrin, the anticontracturant activities of some of the compounds of the invention were tested on guinea-pig gall bladders stimulated by CCK-8 in vitro.
A longitudinal strip of guinea-pig gall bladder was placed in a bath for isolated organs in the presence of Krebs at a temperature of 32° C. and oxygenated continuously with an oxygen-CO2 mixture (95-5 V/V).
The isometric contractions were detected by means of a force transducer and recorded.
The gall bladder was contracted with the use of a concentration of 10 ng/ml of CCK-8; the antagonistic activities of the compounds towards the contracturant effect of the CCK was determined with the use of different concentrations, thus determining the IC50 values, that is, the concentration of the compound in mcg/ml which can antagonise the contracturant effect of CCK by 50%.

[4] = pentagastrin tritiate ligand, 40 minutes at 37° C., read-out: IC50, inhibition of the binding of pentagastrin

Row | Compound | ED50 [1] [mg/kg] | IC50 [2, 4] [nM] | Antigastrin activity (in words) [1] | Anti-CCK activity IC50 [3] [µg/mL] | Antagonism of contracturant activity of CCK-8 relative to lorglumide (in words) [3] | IC50 [2] [nM]
1 | O=C(O)CCC(NC(=O)c1cccc(Cl)c1)C(=O)N1CCC2(CC1)SCCS2 (racemic) [Compound D1, (R,S) (±)-4-[(3-chlorobenzoyl)amino]-5-(1.4-dithia-8-azaspiro[4.5]decan-8-yl)-5-oxopentanoic acid] | > 75 | 2600 |  |  |  | 
2 | O=C(O)CC[C@@H](NC(=O)c1cccc(Cl)c1)C(=O)NCCC12CC3CC(CC(C3)C1)C2 [Compound C30] | 25 | 30 | particularly favourable | 59 |  | 
3 | O=C(O)CC[C@@H](NC(=O)c1ccc2ccccc2c1)C(=O)N1CCC2(CCCC2)CC1 [Compound C10] | 45 | 100 |  | 1.0 | at concentrations no greater than those shown by lorglumide | 
4 | O=C(O)CC[C@@H](NC(=O)c1cc(Cl)cc(Cl)c1)C(=O)N1CCC2(CCCCC2)C1 [Compound C6] | 45 | 320 |  |  |  | 
5 | O=C(O)CC[C@H](NC(=O)c1cccc(Cl)c1)C(=O)N1CCC2(CCCC2)CC1 [Compound C32] | > 100 | 26000 | completely inactive up to a dose of 100 mg/Kg |  |  | 
6 | O=C(O)CC[C@@H](NC(=O)c1ccc(Cl)c(Cl)c1)C(=O)N1CCC2(CCCCC2)CC1 [Compound C20] | 64 |  |  | 0.5 | at concentrations no greater than those shown by lorglumide | 
7 | O=C(O)CCCC(NC(=O)c1cccc(Cl)c1)C(=O)N1CCC2(CCCC2)CC1 (stereo not drawn) [Compound D5] | 32 | 1500 |  |  |  | 
8 | O=C(O)CC[C@@H](NC(=O)c1cccc(Cl)c1)C(=O)N1CCC2CCCCC2C1 (stereo partly drawn) [Compound C29] | 35 | 800 |  | 234 |  | 
9 | O=C(O)CC[C@@H](NC(=O)c1cnc2ccccc2c1)C(=O)N1CCC2(CCCCC2)CC1 [Compound C21] | > 75 | 510 |  | 0.2 | at concentrations no greater than those shown by lorglumide | 
10 | O=C(O)CC(NC(=O)c1cccc(Cl)c1)C(=O)N1CCC2(CCCC2)CC1 (stereo not drawn) [Compound D4] | 70 | 6800 |  | 36 |  | 
11 | O=C(O)CCC(NC(=O)c1cccc(Cl)c1)C(=O)N1CCC2(CC1)OCC(CO)O2 (stereo not drawn) [Compound D2] | 85 |  |  | 108 |  | > 10000
12 | O=C(O)CC[C@@H](NC(=O)c1cccc([N+](=O)[O-])c1)C(=O)N1CCC2(CCCC2)CC1 [Compound C14] | 68 | 8100 |  |  |  | 
13 | CCCCCN(CCCCC)C(=O)C(CCC(=O)O)NC(=O)c1ccc(Cl)c(Cl)c1 (stereo not drawn) [Lorglumide, lorglumide, reference compound] | > 100 |  | completely inactive up to a dose of 100 mg/Kg | 0.06 |  | 
14 | O=C(O)CC[C@@H](NC(=O)c1cc(Cl)cc(Cl)c1)C(=O)NC1CCC2(CCCCC2)CC1 [Compound C23] | 40 | 320 |  |  |  | 
15 | O=C(O)CC[C@@H](NC(=O)c1cccc(Cl)c1)C(=O)N1CCC2(CCCCC2)CC1 [Compound C2] | 33 | 140 |  | 4.9 |  | 
16 | O=C(O)CC[C@@H](NC(=O)c1cccc(Cl)c1)C(=O)N1CCC2(CCCC2)C1 [Compound C3] | 75 |  |  | 43 |  | 
17 | O=C(O)CC[C@@H](NC(=O)c1cnc2ccccc2c1)C(=O)N1CCC2(CCCC2)CC1 [Compound C19] | 68 |  |  | 1.5 | at concentrations no greater than those shown by lorglumide | 
